Measured values reported in patent US12144785B2, “Composition of vitamin K and vitamin D for treating or preventing cardiovascular disease” (NATTOPHARMA AS, priority 2002, dated 2024).

Tested on: thoracic aorta
Assay: Aortic calcification in warfarin-treated rats: total calcium in thoracic aorta extract by atomic absorptiometry
Assay type: in vivo
Settings: for Pre-formed calcium crystals / aortic calcification on high vitamin K diet: "high K": 6 weeks warfarin, then 6 weeks diet with 100 μg/g vitamin K, FIG. 6, means of K1 and K2 groups; for Difference between the outcomes for K1 and K2: high vitamin K diet after 6 weeks warfarin
Protocol: We performed and experiment using 48 rats. Each point in the various curves shown in FIGS. 3-6 is the mean of six rats, which were sacrificed. The thoracic aorta was dissected, homogenized, and precipitated calcium salts were dissolved in formic acid. The total calcium concentration in the extract was assessed by atomic absorptiometry, and is expressed as microgram calcium per gram of tissue.
Six of them were killed at baseline, six after 6 weeks, and the last six after 12 weeks. Apart from the cellular calcium, no accretion of calcium was observed during the test period. […] The protocol used involves the oral administration of a mixture of warfarin (3 mg/g of food) and vitamin K1 (1.5 mg/g of food) and is explained extensively in: H. M. H. Spronk et al, Tissue-specific utilization of menaquinone-4 results in the prevention of arterial calcification in warfarin-treated rats, Journal of Vascular Research 2003; 40:531-537. This treatment is designated as “low K”. Six rats were killed after 6 weeks of treatment, and another six after 12 weeks of treatment.
The other rats were first treated for six weeks with warfarin. One group of animals was subsequently fed the standard diet containing 5 μg vitamin K per g of food (indicated as “norm K”). […] Apparently, the presence of calcium precipitates is a sufficient trigger to continue further calcification (see FIG. 5) when using a normal diet.
Finally, we used two groups of six rats who had received the first 6-week treatment with warfarin, and a high vitamin K diet in the second 6-week period. One group received a diet containing […] of vitamin K1, the other one a diet containing 100 μg/g of vitamin K2 (menaquinone-4). Since there was no difference between the outcomes for K1 and K2, we present the means of both groups in FIG. 6 (designated as “high K”). […] This may be related to the relatively high dose used, and different efficacies may still be found from dose-response experiments. […] It may be expected that after prolonged treatment all calcified precipitates will dissolve by high vitamin K intake. The dose used for dissolving calcified precipitates in the aorta was 20 times the normal dose used (compared to the recommended allowance in humans). If extrapolated to humans the effective intake of vitamin K should thus be increased from 100 μg/day to 2 mg/day. Experiments in which lower doses are used will be initiated. However, it is likely that a similar effect will be observed at lower doses, even as low as 1-2 times the normal daily intake. This will depend upon factors such as vitamin K absorption since synthetic supplemented vitamin K is typically absorbed better (e.g. 10-20 fold) than nutritional vitamin K (e.g. which may be bound to chloroplasts in the food matrix).

Compound	Pre-formed calcium crystals / aortic calcification on high vitamin K diet	Difference between the outcomes for K1 and K2	Calcium in the arterial wall ("low K": warfarin 3 mg/g food + vitamin K1 1.5 mg/g food, oral, 6 and 12 weeks, FIG. 4)	Aortic calcification after change to the standard diet ("norm K": 6 weeks warfarin, then standard diet with 5 μg vitamin K per g of food, FIG. 5)
CC1=C(C/C=C(\C)CCC[C@H](C)CCC[C@H](C)CCCC(C)C)C(=O)c2ccccc2C1=O [vitamin K1, phylloquinone]	dissolved to a great deal	no difference	–	–
CC(C)=CCC/C(C)=C/CC/C(C)=C/CC/C(C)=C/CC1=C(C)C(=O)c2ccccc2C1=O [vitamin K2, menaquinone-4]	dissolved to a great deal	no difference	–	–
CC(=O)CC(c1ccccc1)c1c(O)c2ccccc2oc1=O (stereo not drawn) [warfarin]	–	–	constant increase	–
vitamin K	–	–	–	did not stop
